# Laboratory results from patent publication US20170333591A9, “ABSORBENT ARTICLE COMPRISING MALODOR REDUCTION COMPOSITIONS” (The Procter & Gamble Company, priority 2014, published 2017).
# Test: Log of liquid dish neat product liquid-air partition coefficient
# Format: physicochemical
# Settings: not given
row,SMILES,Comment Code: Log of liquid dish neat product liquid-air partition coefficient
1,C=CCOC(=O)COc1ccccc1 [Material 743],K (Log of liquid dish neat product liquid-air partition coefficient greater than or equal to 7)
2,C=C1[C@H]2CC[C@H](CO)[C@@]23CC[C@H](C3)C1(C)C [Material 183],K (Log of liquid dish neat product liquid-air partition coefficient greater than or equal to 7)
3,CC(=O)C(C)=CC1C(C)=CCCC1(C)C (stereo not shown) [Material 703],K (Log of liquid dish neat product liquid-air partition coefficient greater than or equal to 7)
4,CCCCCCCC(=O)OCCC(C)C [Material 237],K (Log of liquid dish neat product liquid-air partition coefficient greater than or equal to 7)
5,CCCCCCCC1(C)OCC(C)O1 (stereo not shown) [Material 838],K (Log of liquid dish neat product liquid-air partition coefficient greater than or equal to 7)
6,CCCOC(=O)[C@H](C)OC(C)(C)CC [Material 1030],K (Log of liquid dish neat product liquid-air partition coefficient greater than or equal to 7)
7,CC1=C(C/C=C(\C)C=O)C(C)(C)CCC1 [Material 602],K (Log of liquid dish neat product liquid-air partition coefficient greater than or equal to 7)
8,CC1(CO)CC1CC1CC2CC2(C)C1(C)C (stereo not shown) [Material 185],K (Log of liquid dish neat product liquid-air partition coefficient greater than or equal to 7)
9,C=CC(C)CCCC(C)(C)O (stereo not shown) [Material 437],K (Log of liquid dish neat product liquid-air partition coefficient greater than or equal to 7)
10,C/C=C(\C)C(=O)OCCc1ccccc1 [Material 960],K (Log of liquid dish neat product liquid-air partition coefficient greater than or equal to 7)
11,CCOC1CCC(C(C)(C)CC)CC1 (stereo not shown) [Material 12],K (Log of liquid dish neat product liquid-air partition coefficient greater than or equal to 7)
12,CC(C)=CCC/C(C)=C/COC=O [Material 306],K (Log of liquid dish neat product liquid-air partition coefficient greater than or equal to 7)
13,CCOCCOCCO [Material 579],K (Log of liquid dish neat product liquid-air partition coefficient greater than or equal to 7)
14,C/C=C/c1ccc(O)c(OC)c1 [Material 1084],K (Log of liquid dish neat product liquid-air partition coefficient greater than or equal to 7)
15,CC(C)=CCC/C(C)=C\COC=O [Material 59],K (Log of liquid dish neat product liquid-air partition coefficient greater than or equal to 7)
16,Cc1n[nH]cc1-c1ccccc1 [Material 808],K (Log of liquid dish neat product liquid-air partition coefficient greater than or equal to 7)
17,CCC(=O)OCCc1ccccc1 [Material 835],K (Log of liquid dish neat product liquid-air partition coefficient greater than or equal to 7)
18,CC1C2CC(CC2C2CCC(O)CC2)C1(C)C (stereo not shown) [Material 230],K (Log of liquid dish neat product liquid-air partition coefficient greater than or equal to 7)
19,CC1=CCC(C23CCCC(C)(C2)OC3)C1(C)C (stereo not shown) [Material 570],K (Log of liquid dish neat product liquid-air partition coefficient greater than or equal to 7)
20,C=C1CC[C@@H]2[C@H]([C@H]3[C@H]1CC[C@]3(C)O)C2(C)C [Material 1035],K (Log of liquid dish neat product liquid-air partition coefficient greater than or equal to 7)
21,CC(=O)OC1CC2C3C=CCC3C1C2(C)C (stereo not shown) [Material 360],K (Log of liquid dish neat product liquid-air partition coefficient greater than or equal to 7)
22,CC(=O)CCC1C(C)=CCCC1(C)C (stereo not shown) [Material 448],K (Log of liquid dish neat product liquid-air partition coefficient greater than or equal to 7)

# Same assay, conditions: code letter within the Comment Code cell
row,SMILES,Log of liquid dish neat product liquid-air partition coefficient (Comment Code K/L)
1,C=CC1(C)CCC(C(C)(C)O)CC1C(=C)C (stereo not shown) [Material 414],K (Log of liquid dish neat product liquid-air partition coefficient greater than or equal to 7)
2,COC(C)(C)CCCC(C)CC=O (stereo not shown) [Material 126],K (Log of liquid dish neat product liquid-air partition coefficient greater than or equal to 7)
3,O=C1CCC=CCCCCCCCCCC1 [Material 372],K (Log of liquid dish neat product liquid-air partition coefficient greater than or equal to 7)
4,CC(C)CC1CC(C)(O)CCO1 (stereo not shown) [Material 350],K (Log of liquid dish neat product liquid-air partition coefficient greater than or equal to 7)
5,C=C1[C@H]2CC[C@H](CO)[C@@]23CC[C@H](C3)C1(C)C [Material 183],K (Log of liquid dish neat product liquid-air partition coefficient greater than or equal to 7)
6,CC(C)=C1CCC(C)(O)CC1 (stereo not shown) [Material 318],K (Log of liquid dish neat product liquid-air partition coefficient greater than or equal to 7)
7,CC(=O)OC1(C)CCC(=C(C)C)CC1 (stereo not shown) [Material 317],K (Log of liquid dish neat product liquid-air partition coefficient greater than or equal to 7)
8,CC1(CO)CC1CC1CC2CC2(C)C1(C)C (stereo not shown) [Material 185],K (Log of liquid dish neat product liquid-air partition coefficient greater than or equal to 7)
9,CC/C(C)=C/CC/C(C)=C\C#N [Material 158],K (Log of liquid dish neat product liquid-air partition coefficient greater than or equal to 7)
10,CC1CCCCCCCCCCCCC(=O)C1 (stereo not shown) [Material 79],K (Log of liquid dish neat product liquid-air partition coefficient greater than or equal to 7)
11,C=CCc1ccc(OC(C)=O)c(OC)c1 [Material 374],K (Log of liquid dish neat product liquid-air partition coefficient greater than or equal to 7)
12,CC1C2CC(CC2C2CCC(O)CC2)C1(C)C (stereo not shown) [Material 230],K (Log of liquid dish neat product liquid-air partition coefficient greater than or equal to 7)
13,CC=CC(=O)OC(C)C1CCCCC1 (stereo not shown) [Material 475],K (Log of liquid dish neat product liquid-air partition coefficient greater than or equal to 7)
14,CCc1ccccc1CC(C)(C)C=O [Material 356],K (Log of liquid dish neat product liquid-air partition coefficient greater than or equal to 7)
15,COC(=O)C=Cc1ccccc1 [Material 117],K (Log of liquid dish neat product liquid-air partition coefficient greater than or equal to 7)
16,CC(=O)OC1CC2C3C=CCC3C1C2(C)C (stereo not shown) [Material 360],K (Log of liquid dish neat product liquid-air partition coefficient greater than or equal to 7)
17,C=C1CCCC(C)(C)C1C(=O)C=CC (stereo not shown) [Material 331],K (Log of liquid dish neat product liquid-air partition coefficient greater than or equal to 7)
18,CC1=C(CCC(C)C=O)C(C)(C)CCC1 (stereo not shown) [Material 560],K (Log of liquid dish neat product liquid-air partition coefficient greater than or equal to 7)

# Same assay, conditions: code letters K/L of the Comment Code
row,SMILES,Log of liquid dish neat product liquid-air partition coefficient (Comment Code)
1,CCCCCCCC/C=C\CC=O [Material 884],K (Log of liquid dish neat product liquid-air partition coefficient greater than or equal to 7)
2,CCC=CCC=CC=CC(=O)OCC [Material 1000],K (Log of liquid dish neat product liquid-air partition coefficient greater than or equal to 7)
3,CC12CCC(C(=O)C1=O)C2(C)C (stereo not shown) [Material 587],K (Log of liquid dish neat product liquid-air partition coefficient greater than or equal to 7)
4,CC(C)(O)Cc1ccccc1 [Material 649],K (Log of liquid dish neat product liquid-air partition coefficient greater than or equal to 7)
5,C=C(C)C1CCC(C)(O)CC1 (stereo not shown) [Material 612],K (Log of liquid dish neat product liquid-air partition coefficient greater than or equal to 7)
6,CCCCCCC/C=C\CCC=O [Material 1045],K (Log of liquid dish neat product liquid-air partition coefficient greater than or equal to 7)
7,CCC=C1OC(=O)c2ccccc21 [Material 805],K (Log of liquid dish neat product liquid-air partition coefficient greater than or equal to 7)
8,CC(C)Cc1ccc2ccccc2n1 [Material 849],K (Log of liquid dish neat product liquid-air partition coefficient greater than or equal to 7)
9,C=C(C)C1CCC2(C)CCCC(=C)C2C1 (stereo not shown) [Material 615],K (Log of liquid dish neat product liquid-air partition coefficient greater than or equal to 7)
10,CC1=CCC(C23CCCC(C)(C2)OC3)C1(C)C (stereo not shown) [Material 570],K (Log of liquid dish neat product liquid-air partition coefficient greater than or equal to 7)
11,CCCCCCCCC=CC=O [Material 828],K (Log of liquid dish neat product liquid-air partition coefficient greater than or equal to 7)
12,C=C1CC[C@@H]2[C@H]([C@H]3[C@H]1CC[C@]3(C)O)C2(C)C [Material 1035],K (Log of liquid dish neat product liquid-air partition coefficient greater than or equal to 7)
13,C=C1C=CC(C(C)CCC=C(C)C)CC1 (stereo not shown) [Material 614],K (Log of liquid dish neat product liquid-air partition coefficient greater than or equal to 7)
14,CC(C)=CCCC1=CCC(C)(C=O)CC1 (stereo not shown) [Material 727],K (Log of liquid dish neat product liquid-air partition coefficient greater than or equal to 7)
15,C=C(C)C1CCC2(C)CCC=C(C)C2C1 (stereo not shown) [Material 692],K (Log of liquid dish neat product liquid-air partition coefficient greater than or equal to 7)
